Laboratory results: US20100297109A1, “METHODS FOR INHIBITING FASCIN” (Cornell University, priority 2007, published 2010)

Key:
[1] = test system: MDA-MB-231 human breast tumor cells; assay: Experimental lung metastasis of MDA-MB-231 cells in NOD-SCID mice, bioluminescence imaging; type: in vivo, mouse; conditions: 10 mg/kg I.P. every other day for seven weeks
Experimental: Breast Tumor Metastasis in Mice. All animal work was performed in compliance with the Institutional Animal Care and Use Committee of the Weill Medical College. Spontaneous 4T1 mouse breast tumor metastasis assay was done as described previously (Shan et al. 2005). NOD-SCID immunodeficient mice were used for experimental lung metastasis experiments. MDA-MB-231 human breast tumor cells expressing the TGL reporter were trypsinized and washed with PBS. This artificial TGL reporter gene encodes a triple fusion protein with herpes simplex virus 1 thymidine kinase fused to the N-terminus of enhanced GFP and firefly luciferase fused to the C-terminus of GFP (Ponomarev et al. 2004). Subsequently 1×10^6 cells in 0.2 ml PBS were injected into the lateral tail vein. […] Three randomly selected fields (10×objectives) on the lower side of the insert were photographed, and the cells on the lower surface of the insert were counted.
Third, the experimental metastasis model with MDA-MB-231 human tumor cells in immunodeficient mice was used to investigate the role of fascin in tumor metastasis and the effect of macroketone on the metastasis of human tumors in mice (FIG. 8 E-H). […] GFP-positive cells were enriched by fluorescence-activated cell sorting. […] The metastasis of tumor cells to the lung was monitored by non-invasive bioluminescence imaging (Minn et al. 2005). […]

fascin = fascin (Homo sapiens, UniProt Q16658); type: biochemical; parameters: GST (N); made in house; host or cells: Escherichia coli BL21; conditions: fluorescence microscopy
Experimental: Whole cell lysates from 4T1 mouse breast tumor cells were made. After preclearing the cell lysate with immobilized neutravidin biotin binding protein (Pierce, IL, USA) to remove biotin and avidin-binding proteins, the cell lysates were loaded to a column packed with the biotin-labeled macroketone (conjugated to neutravidin beads). A control column packed with free biotin and neutravidin beads was run side-by-side. After washing the column with 10 bed volumes of lysis buffer with 300 mM NaCl, the bound proteins were eluted with 0.1 M Glycine-HCl at pH 2.8 according to the manufacturer's instruction. […] Protein Expression and Purification. Recombinant GST-fascin fusion protein was produced in BL21 Escherichia coli. A 1-liter culture was grown to an A600 reading of 1.0 and then induced by addition of 0.3 mM isopropyl 1-thio-D-galactopyranoside (IPTG) for 12 hours at 25° C. Cells were flash frozen and then lysed by sonication in Tris-buffered saline. The supernatant was then incubated with glutathione-Sepharose for 2 h at 4° C. After extensive washing, GST-fascin was eluted and concentrated with a Centricon Plus-20 (Millipore). To remove the GST tag from the fusion protein, beads were incubated with thrombin overnight at 4° C. The supernatant was collected and concentrated. […] Actin bundling activity was measured by low speed centrifugation assay and fluorescence microscopy. […]

With `COC1C=CCCCCC(=O)CCC(C)=CC(C)C1O` (stereo not drawn) [macroketone, Migrastatin ketone] as the compound, how does the “reduction of metastasis of MDA-MB-231 cells (photon flux)” value [1] read?
Its value is over 80%.

What about the “inhibition of formation of F-actin bundles” value (fascin; fascin present) of the same compound?
The value was over 80%.

What about the “ability of fascin to bundle actin polymers” value (fascin; preincubation of fascin) of the same compound?
Its value is “decreased the ability of fascin to bundle actin polymers”.
